Results: patent publication US20070212723A1, “Human sodium channel isoforms” (priority 2006, published 2007)

What was measured:
[1] = tested on: cardiac sodium channel (scn5a) mRNA; experiment: Quantitative real-time RT-PCR of scn5a transcripts in H9c2 cells; type: cell-based, rat
[2] = tested on: cardiac sodium channel (scn5a) mRNA; experiment: Quantitative real-time RT-PCR of scn5a transcripts in acutely isolated neonatal cardiomyocytes; type: cell-based, rat
[3] = tested on: scn5a promoter with mutated NF-κB binding site; experiment: Promoter-reporter assay with mutated NF-κB binding site (APS3-NF-κBm) in H9c2 cells; type: cell-based, rat; settings: H9c2, 48 h, 100 nM AngII or 20 μM H2O2
[4] = target: T1, NF-κB binding to the scn5a promoter (Rattus norvegicus, UniProt Q63369+Q7TQN4); experiment: Electrophoretic mobility shift assay with H9c2 nuclear extracts; type: cell-based
T1 construct: endogenous in cells; host or cells: H9c2 cardiomyocytes (nuclear extract / cross-linked chromatin)
Text: Approximately 5×10^6 cells were scraped for nuclear protein extraction by nuclear extract kit (Activemotif, Carlsbad, Calif.). A double-stranded oligonucleotide containing the consensus-binding sequence (bold) for […] ID NO. 32)) and NF-Kb mutant sequence ([NT] ID NO. 33)) from scn5a promoter were used as probes to assay for binding activity of the nuclear extracts. Protein-DNA complexes were detected using biotin end-labeled double-stranded DNA probes prepared by annealing complementary oligonucleotides. Oligonucleotides were labeled in a reaction using terminal deoxynucleotide transferase and biotin-N4-CTP (Pierce, Rockford, Ill.) following the biotin 3' end DNA labeling kit manual. The binding reaction was performed using the LightShift kit (Pierce). Briefly, 30 μg of nuclear extracts and binding buffer were incubated on ice for 5 min in a volume of 20 μL, then the labeled probe (20 fmol) was added, and the reaction was allowed to incubate for an additional 25 min. Following electrophoresis, the DNA-protein complexes were transferred onto nylon membranes and detected using chemiluminescence. TNF-α activated H9c2 cell nuclear extract (5 μg) was used as positive control. The reaction products were separated on a 6% retardation gel. Specificity was confirmed by addition of unlabelled probe in 200-fold excess.

[5] = tested on: cardiac Na+ channel current; experiment: Patch-clamp determination of Na+ current in H9c2 cells; type: cell-based, rat; settings: H9c2, 20 μmol/L H2O2, 48 h, step to -10 mV
Description: Three hours prior to the start of the patch-clamp experiments, H9c2 cells were trypsinized and plated on treated plastic coverslips. H9c2 cells were treated with or without H2O2 as indicated. Glass pipettes were pulled on a Sutter Model P-97 horizontal puller to a resistance of 0.5 to 1.5 MΩ. The glass pipettes were filled with a solution of (in mM) CsCl 60, Cesium Aspartate 80, EGTA sodium 11, HEPES 10, Na2ATP 5 and pH 7.2 with CsOH. The bath solution consisted of (in mM) Na 30, […] chloride 100, CsCl 5, CaCl2 2, MgCl2 1.2, HEPES 10, Glucose 5 and pH 7.4 with NaOH. Once a seal was established, a small amount of suction was applied to obtain the whole cell configuration. From a holding potential of −100 mV, peak currents obtained at −10 mV were used for comparison. Cells were tested at 25° C. Data were sampled at 10 kHz and later filtered at 5 kHz for analysis. Currents were recorded and analyzed with an Axopatch 200B amplifier, Axon Digidata 1230A A/D converter and pClamp software (Molecular Devices Corporation, Sunnyvale, Calif.).

[6] = target: T2, NF-κB p50/p65 subunits on the cardiac Na+ channel promoter (Rattus norvegicus, UniProt Q63369+Q7TQN4); experiment: Chromatin immunoprecipitation (ChIP) assay in H9c2 cells; type: cell-based
T2 construct: endogenous in cells; host or cells: H9c2 cardiomyocytes (nuclear extract / cross-linked chromatin)
Description: Formaldehyde cross-linking and chromatin immunoprecipitation was performed as described in manufactory's manual (ChIP-IT™ kit, Activemotif). Briefly, proteins were crosslinked with chromatin using 1% formaldehyde in H9c2 cells with or without treatment. The cells were subsequently sonicated in lysis buffer, and an aliquot of the lysate was used in a PCR reaction. The remaining lysate was cleared with protein G beads. One half of the cleared lysate was incubated with p50 or p65 antibody, while the other half was used as a negative control without the antibody. After reversing the cross-linking, the immuno-complex was digested with proteinase K, and the DNA was purified. DNA was analyzed by PCR with the PicoMax Polymerase (Stratagene, La Jolla, Calif.) and primers specific to the APS3 promoter region.

[7] = tested on: scn5a promoter; experiment: scn5a promoter-reporter (pGL3-APS3) dual-luciferase assay in H9c2 cells; type: cell-based, rat; settings: APS3 construct, H9c2, 20 μM H2O2, 48 h
[8] = target: Na+ current (Homo sapiens, UniProt Q14524); settings: acute exposure, dependent on PKC activation (Ward et al. 1997); cited from earlier work
[9] = tested on: H9c2 cardiomyocytes; settings: H9c2, serum free medium, 48 h
Description: The rat embryonic cardiomyocyte cell line, H9c2 (ATCC cat # CRL-1446), or acutely isolated neonatal rat heart cardiomyocytes were used. Rat neonatal ventricular cells were isolated from 3-day-old Sprague-Dawley rats (Charles River Laboratories Wilmington, Mass.) using a kit and following the manufacturer's instructions (Worthington Biochemical Corp. Lakewood, N.J.). Cells cultured in Dulbecco's modified Eagle's medium (DMEM; ATCC, Manassas, Va.) with 10% fetal calf serum (ATCC) under standard tissue culture conditions at 37° C. to 70-80% confluence were exposed to AngII (Sigma, St. Louis, Mo.) or H2O2 (Sigma) in serum free culture medium (SFM) for a total of 48 h in triplicate in 24 well plates. Experiments were repeated three times. After dissociation with 0.125% trypsin-EDTA, 20 μL of 0.4% Trypan-blue (Sigma, St. Louis, Mo.) was added to each well, and a Trypan-blue exclusion viability assay was performed.

T2 sequence (Q63369 1-433 limits assumed): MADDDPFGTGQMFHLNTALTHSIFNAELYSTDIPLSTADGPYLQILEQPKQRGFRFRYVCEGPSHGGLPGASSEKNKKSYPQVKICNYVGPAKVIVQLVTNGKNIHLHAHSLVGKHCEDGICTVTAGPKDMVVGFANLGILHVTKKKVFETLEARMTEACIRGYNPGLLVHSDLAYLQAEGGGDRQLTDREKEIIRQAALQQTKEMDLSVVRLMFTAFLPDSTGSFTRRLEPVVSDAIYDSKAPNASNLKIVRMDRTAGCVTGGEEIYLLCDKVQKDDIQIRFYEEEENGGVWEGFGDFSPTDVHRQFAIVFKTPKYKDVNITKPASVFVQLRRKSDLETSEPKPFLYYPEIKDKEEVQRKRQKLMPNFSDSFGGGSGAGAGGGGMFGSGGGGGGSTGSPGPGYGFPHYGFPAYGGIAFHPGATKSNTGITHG
T2 sequence (Q7TQN4 whole entry): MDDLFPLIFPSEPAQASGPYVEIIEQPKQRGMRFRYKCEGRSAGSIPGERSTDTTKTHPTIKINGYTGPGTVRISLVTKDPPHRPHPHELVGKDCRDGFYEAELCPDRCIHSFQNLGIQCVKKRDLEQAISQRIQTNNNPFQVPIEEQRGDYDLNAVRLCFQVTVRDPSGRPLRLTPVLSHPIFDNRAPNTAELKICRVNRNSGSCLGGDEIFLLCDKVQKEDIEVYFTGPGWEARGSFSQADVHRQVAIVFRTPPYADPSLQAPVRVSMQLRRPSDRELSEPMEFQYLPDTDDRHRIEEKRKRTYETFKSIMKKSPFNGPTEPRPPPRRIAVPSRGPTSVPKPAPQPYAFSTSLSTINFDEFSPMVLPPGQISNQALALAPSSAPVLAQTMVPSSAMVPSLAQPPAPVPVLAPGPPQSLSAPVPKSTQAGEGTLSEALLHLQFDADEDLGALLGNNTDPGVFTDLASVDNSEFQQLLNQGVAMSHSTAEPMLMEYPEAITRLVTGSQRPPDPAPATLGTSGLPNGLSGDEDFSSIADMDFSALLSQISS
T1 sequence (Q63369 1-433 limits assumed): as the sequence (Q63369 1-433 limits assumed) above
T1 sequence (Q7TQN4 whole entry): as the sequence (Q7TQN4 whole entry) above
Na+ current, sequence (Q14524 whole entry): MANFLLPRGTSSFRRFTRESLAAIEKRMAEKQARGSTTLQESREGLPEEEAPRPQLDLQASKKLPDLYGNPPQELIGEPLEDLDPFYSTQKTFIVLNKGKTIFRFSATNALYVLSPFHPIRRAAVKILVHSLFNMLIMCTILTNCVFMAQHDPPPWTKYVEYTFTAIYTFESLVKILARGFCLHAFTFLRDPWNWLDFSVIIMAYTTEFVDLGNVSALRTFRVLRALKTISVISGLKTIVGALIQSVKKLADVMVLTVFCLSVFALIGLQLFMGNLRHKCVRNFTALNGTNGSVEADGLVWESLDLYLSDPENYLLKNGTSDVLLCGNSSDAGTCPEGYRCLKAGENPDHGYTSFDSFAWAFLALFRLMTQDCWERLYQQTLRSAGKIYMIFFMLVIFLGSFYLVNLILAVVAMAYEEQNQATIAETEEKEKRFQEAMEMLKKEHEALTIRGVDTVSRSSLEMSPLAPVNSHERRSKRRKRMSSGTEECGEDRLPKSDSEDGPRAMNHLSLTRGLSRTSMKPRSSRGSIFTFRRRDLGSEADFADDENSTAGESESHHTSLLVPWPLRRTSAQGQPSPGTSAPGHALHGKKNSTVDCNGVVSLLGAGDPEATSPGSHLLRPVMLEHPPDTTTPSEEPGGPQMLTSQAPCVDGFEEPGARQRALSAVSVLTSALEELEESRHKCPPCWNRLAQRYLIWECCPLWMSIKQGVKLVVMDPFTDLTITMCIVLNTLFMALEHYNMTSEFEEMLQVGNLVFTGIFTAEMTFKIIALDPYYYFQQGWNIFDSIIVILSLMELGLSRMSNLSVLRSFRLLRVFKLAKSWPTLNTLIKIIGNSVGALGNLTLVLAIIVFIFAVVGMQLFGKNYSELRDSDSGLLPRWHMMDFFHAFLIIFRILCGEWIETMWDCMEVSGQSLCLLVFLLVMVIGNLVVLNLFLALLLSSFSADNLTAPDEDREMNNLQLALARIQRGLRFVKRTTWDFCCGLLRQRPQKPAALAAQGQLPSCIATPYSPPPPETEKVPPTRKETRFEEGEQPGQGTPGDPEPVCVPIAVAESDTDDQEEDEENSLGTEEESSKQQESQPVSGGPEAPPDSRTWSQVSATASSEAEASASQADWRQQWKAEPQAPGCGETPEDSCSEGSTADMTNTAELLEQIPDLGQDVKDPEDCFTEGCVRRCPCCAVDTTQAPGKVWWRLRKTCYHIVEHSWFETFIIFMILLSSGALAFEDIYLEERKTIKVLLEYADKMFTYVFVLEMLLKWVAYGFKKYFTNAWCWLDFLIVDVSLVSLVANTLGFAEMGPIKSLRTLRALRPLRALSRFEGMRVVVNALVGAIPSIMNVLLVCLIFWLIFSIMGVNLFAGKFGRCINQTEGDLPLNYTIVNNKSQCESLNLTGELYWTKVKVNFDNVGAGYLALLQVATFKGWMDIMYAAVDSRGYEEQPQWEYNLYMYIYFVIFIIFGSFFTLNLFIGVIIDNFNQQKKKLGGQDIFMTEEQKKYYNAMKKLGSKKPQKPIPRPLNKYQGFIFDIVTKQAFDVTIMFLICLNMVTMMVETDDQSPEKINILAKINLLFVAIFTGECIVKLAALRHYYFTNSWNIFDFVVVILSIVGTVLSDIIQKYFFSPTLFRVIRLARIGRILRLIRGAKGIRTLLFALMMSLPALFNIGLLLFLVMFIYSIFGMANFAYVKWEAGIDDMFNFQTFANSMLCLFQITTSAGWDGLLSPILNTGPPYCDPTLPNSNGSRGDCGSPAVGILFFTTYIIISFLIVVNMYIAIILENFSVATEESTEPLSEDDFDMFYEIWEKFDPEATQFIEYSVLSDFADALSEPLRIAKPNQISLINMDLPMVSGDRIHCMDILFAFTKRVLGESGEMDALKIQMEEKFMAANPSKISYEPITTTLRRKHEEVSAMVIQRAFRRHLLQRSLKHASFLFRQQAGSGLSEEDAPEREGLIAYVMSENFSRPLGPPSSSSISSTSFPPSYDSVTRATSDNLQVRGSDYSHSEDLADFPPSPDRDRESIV

With catalase the “effect on AngII-mediated downregulation of Na+ channel mRNA” value ([1]; H9c2, pretreatment with PEG-catalase 250 U/mL, AngII 100 nM, 48 h) was “prevented” and the “effect on AngII-mediated downregulation of Na+ channel mRNA” value ([2]; neonatal cardiomyocytes, pretreatment with PEG-catalase 250 U/mL, AngII 2 nM, 48 h) was “prevented”.
In the case of OO [H2O2], the “change in promoter activity of construct with mutated NF-κB binding site” value [3] is reported as “no significant change in activity”, the “reduction in Na+ channel mRNA” value ([1]; H9c2, 20 μmol/L H2O2, 48 h) is reported as 46.9% and the “reduction in Na+ channel mRNA” value ([2]; isolated neonatal rat myocytes, 40 nM H2O2, 48 h) is reported as 45.4%. For the same compound, the “NF-κB binding activity to scn5a promoter probe” value ([4]; H9c2 nuclear extracts, 48 h treatment) was “increased”, the “decrease in peak Na+ current” value [5] was 46% and the “NF-κB subunits on the cardiac Na+ channel promoter” value ([6]; H9c2, AngII or H2O2 treatment) was “formation of the complete p50-p65 NF-κB heterodimer”. The “depression of scn5a Na+ channel promoter activity” value [7] was 42.3% and the “effect on inactivation of the Na+ current” value [8] was “slowing of inactivation”.
For CC[C@H](C)[C@H](NC(=O)[C@H](Cc1ccc(O)cc1)NC(=O)[C@@H](NC(=O)[C@H](CCCNC(=N)N)NC(=O)[C@@H](N)CC(=O)O)C(C)C)C(=O)N[C@@H](Cc1cnc[nH]1)C(=O)N1CCC[C@H]1C(=O)N[C@@H](Cc1ccccc1)C(=O)O [AngII, angiotensin II], the “AngII concentrations tolerated (cell viability)” value [9] was 1 to 500 nM.
For O=C(/C=C/c1ccc(O)c(O)c1)OCCc1ccccc1 [CAPE, caffeic acid phenethyl ester], the “effect on NF-κB binding to scn5a promoter probe” value ([4]; CAPE 10 μM, H9c2 treated with H2O2) was “blocked” and the “effect on binding of p50 and p65 subunits to the channel promoter” value ([6]; H9c2, CAPE) was “could prevent biding of both subunits”.
